Experimental findings from patent publication US8329686B2, “Isatin analogues and uses therefor” (Washington University, priority 2006, dated 2012) are described below.

One may read the IC50 as the concentration needed to halve the response being measured.

Format in all cases: biochemical
Assay [1] has as its target T1, caspase 8 (Homo sapiens, UniProt Q14790).
T1 construct: purchased Sigma-Aldrich (St. Louis, Mo.)
The assay can be described thus: Enzyme inhibition assay, caspase 8 (fluorogenic Ac-IETD-AMC).

The target of assay [2] is T2, caspase-3 (Homo sapiens, UniProt P42574).
T2 construct: purchased Sigma-Aldrich (St. Louis, Mo.)
T2 sequence (P42574 29-175 limits assumed): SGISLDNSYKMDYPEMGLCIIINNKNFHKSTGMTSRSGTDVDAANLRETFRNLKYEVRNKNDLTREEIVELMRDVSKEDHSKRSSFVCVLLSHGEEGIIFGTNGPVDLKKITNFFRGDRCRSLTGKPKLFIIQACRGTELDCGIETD
T2 sequence (P42574 176-277 limits assumed): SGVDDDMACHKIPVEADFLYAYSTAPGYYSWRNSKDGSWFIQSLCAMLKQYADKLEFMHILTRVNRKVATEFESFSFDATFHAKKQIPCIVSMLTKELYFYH
The assay can be described thus: Enzyme inhibition assay, caspase 3 (fluorogenic Ac-DEVD-AMC).

Assay [3] deals with T3, caspase 6 (Homo sapiens, UniProt P55212).
T3 construct: purchased Sigma-Aldrich (St. Louis, Mo.)
T3 sequence (P55212 24-179 limits assumed): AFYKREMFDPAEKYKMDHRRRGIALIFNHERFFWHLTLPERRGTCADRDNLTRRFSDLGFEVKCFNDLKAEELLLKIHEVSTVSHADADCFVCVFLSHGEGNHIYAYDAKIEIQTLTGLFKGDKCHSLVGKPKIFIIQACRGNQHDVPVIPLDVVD
T3 sequence (P55212 194-293 limits assumed): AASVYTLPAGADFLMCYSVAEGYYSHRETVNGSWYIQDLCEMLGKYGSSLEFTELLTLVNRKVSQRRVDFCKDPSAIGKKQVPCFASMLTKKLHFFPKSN
Briefly: Enzyme inhibition assay, caspase 6 (fluorogenic Ac-VEID-AMC).
Description: (§1) Enzyme Assays. Inhibition of recombinant human caspase-3 and other caspases by the isatin analogues was assessed using a fluorometric assay by measuring the accumulation of a fluorogenic product, 7-amino-4-methylcoumarin (7-AMC).
(§2) Enzyme Inhibition Assays. Recombinant human caspases (3, 6, 7, and 8) and their peptide-specific substrates (Ac-DEVDAMC, Ac-VEID-AMC, Ac-DEVD-AMC, and Ac-IETD-AMC, respectively) were purchased from Sigma-Aldrich (St. Louis, Mo.) with the exception of caspase 1 and its substrate (Ac-YVAD-AMC), which were obtained from BIOMOL Research Laboratories (Plymouth Meeting, Pa.). The enzymatic activity of caspases was determined by measuring the accumulation of the fluorogenic product 7-amino-4-methylcoumarin (AMC). All assays were prepared in 96-well format at a volume of 210 μL per well and consisted of 100 mM Na+ HEPES (pH 7.4), 10% sucrose, 100 mM NaCl, 0.1% CHAPS, 5 mM 2-mercaptoethanol, 2 mM EDTA, 10 μM Ac-YVAD-AMC (caspase 1); 20 mMNa^+ HEPES (pH 7.4), 10% sucrose, 100 mMNaCl, 0.1% CHAPS, 2 mM EDTA, 10 μM Ac-DEVD-AMC (caspase 3); 20 mM Na^+ HEPES (pH 7.4), 10% sucrose, 100 mM NaCl, 0.1% CHAPS, 2 mM EDTA, 10 μM Ac-VEID-AMC (caspase 6); 20 mM Na+ HEPES (pH 7.4), 100 mM NaCl, 10% sucrose, 0.1% CHAPS, 5 mM 2-mercaptoethanol, 2 mM EDTA, 10 μM Ac-DEVD-AMC (caspase 7); 20 mM Na+ HEPES (pH 7.4), 10% sucrose, 100 mM NaCl, 0.1% CHAPS, 2 mM EDTA, 10 μM Ac-IETD-AMC (caspase 8).
(§3) Recombinant caspases were first assayed to determine the optimal concentration for each experiment. Optimal concentrations were based in the linear range of the enzyme activation curves. Peptide inhibitors with known IC50 values were tested together with the compounds as a control for each caspase assay. […] Peptide and nonpeptide inhibitors were dissolved in DMSO, and a 2 serial dilution was performed prior to screening in order to obtain desired concentrations. 10 μL was added to each well containing 100 μL caspase solution and allowed to incubate on ice for 30 min. […] The final concentration of DMSO in all wells was 5% of the total volume. In caspase-1 and caspase-7 assays, 10 mM 2-mercaptoethanol was added to the substrate solution for full activation of the enzymes.
(§4) Compounds were tested in duplicate, and IC50 curves were calculated for all inhibitors assayed. Final IC50s were the average of three independent experiments.

For assay [4], the target named is T4, caspase 7 (Homo sapiens, UniProt P55210).
T4 construct: purchased Sigma-Aldrich (St. Louis, Mo.)
T4 sequence (P55210 24-198 limits assumed): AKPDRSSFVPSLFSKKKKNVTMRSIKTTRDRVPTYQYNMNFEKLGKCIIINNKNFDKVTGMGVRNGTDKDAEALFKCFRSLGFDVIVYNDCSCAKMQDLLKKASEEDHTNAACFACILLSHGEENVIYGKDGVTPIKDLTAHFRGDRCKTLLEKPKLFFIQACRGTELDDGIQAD
T4 sequence (P55210 207-303 limits assumed): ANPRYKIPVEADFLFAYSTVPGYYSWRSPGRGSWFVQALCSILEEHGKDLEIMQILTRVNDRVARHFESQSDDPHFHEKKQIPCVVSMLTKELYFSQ
Briefly: Enzyme inhibition assay, caspase 7 (fluorogenic Ac-DEVD-AMC).
Description: as §1, §2, §3, §4

For assay [5], the target named is T5, caspase 1 (Homo sapiens, UniProt P29466).
T5 construct: purchased BIOMOL Research Laboratories (Plymouth Meeting, Pa.)
T5 sequence (P29466 120-297 limits assumed): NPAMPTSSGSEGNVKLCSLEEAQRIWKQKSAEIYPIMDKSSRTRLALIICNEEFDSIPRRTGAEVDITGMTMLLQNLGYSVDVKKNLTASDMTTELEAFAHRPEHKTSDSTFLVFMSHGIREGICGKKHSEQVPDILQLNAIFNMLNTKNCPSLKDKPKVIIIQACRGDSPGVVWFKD
T5 sequence (P29466 317-404 limits assumed): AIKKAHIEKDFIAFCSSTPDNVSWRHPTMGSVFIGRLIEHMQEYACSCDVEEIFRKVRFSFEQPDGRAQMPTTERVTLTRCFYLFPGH
Briefly: Enzyme inhibition assay, caspase 1 (fluorogenic Ac-YVAD-AMC).
Description: as §1, §2, §3, §4

The mark [6] stands for this setting: Table 7, read-out: IC50 (nM) Casp-8.
[7] abbreviates: Table 7, read-out: IC50 (nM) Casp-1.
Setting [8] is: Table 2, read-out: IC50 (nM) Caspase 8.
Where [9] appears, read: Table 2, read-out: IC50 (nM) Caspase 3.
[10] abbreviates: Table 2, read-out: IC50 (nM) Caspase 6.
The mark [11] stands for this setting: Table 2, read-out: IC50 (nM) Caspase 7.
Setting [12] is: Table 2, read-out: IC50 (nM) Caspase 1.
The mark [13] stands for this setting: Table 1, read-out: IC50 (nM) Caspase 8.
The mark [14] stands for this setting: Table 1, read-out: IC50 (nM) Caspase 1.
The mark [15] stands for this setting: Table 6, read-out: IC50 (nM) caspase-8.
Where [16] appears, read: Table 6, read-out: IC50 (nM) caspase-3.
[17] abbreviates: Table 6, read-out: IC50 (nM) caspase-6.
The mark [18] stands for this setting: Table 6, read-out: IC50 (nM) caspase-7.
The mark [19] stands for this setting: Table 6, read-out: IC50 (nM) caspase-1.

Read-outs that look alike come from different tables or passages of the source.

T1 sequence (Q14790 217-374 limits assumed): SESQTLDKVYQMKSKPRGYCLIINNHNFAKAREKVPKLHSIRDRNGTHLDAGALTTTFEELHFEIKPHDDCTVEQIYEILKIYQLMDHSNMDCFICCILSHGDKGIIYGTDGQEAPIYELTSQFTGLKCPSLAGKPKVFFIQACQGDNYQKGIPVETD
T1 sequence (Q14790 385-479 limits assumed): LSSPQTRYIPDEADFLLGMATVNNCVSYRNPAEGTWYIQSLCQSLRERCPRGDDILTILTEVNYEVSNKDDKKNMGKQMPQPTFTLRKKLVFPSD

Take `O=C1C(=O)N(Cc2ccc(O)cc2)c2ccc(S(=O)(=O)N3CCCC3COc3cccnc3)cc21` (centres unmarked) [Compound 28b, 1-(4-Hydroxy-benzyl)-5-[2-(pyridin-3-yl-oxymethyl)-pyrrolidine-1-sulfonyl]-1H-indole-2,3-dione]: the IC50 in assay [1] (setting [6]) was above 50000 nM; in assay [2] (IC50 (nM) Casp-3, Table 7), 3.9 ± 0.6 nM; in assay [3] it was 9550 ± 354 nM; in assay [4] (IC50 (nM) Casp-7, Table 7), 11.7 ± 1 nM; in assay [5] (setting [7]) it was above 15000 nM.

As to `N#CC(C#N)=C1C(=O)N(Cc2ccccc2)c2ccc(S(=O)(=O)N3CCCC3COc3ccccc3)cc21` (centres unmarked) [Compound 27b, 2-[1-Benzyl-2-oxo-5-(2-phenoxymethyl-pyrrolidine-1-sulfonyl)-1,2-dihydroindol-3-yl-idene]-malononitrile], the concentration for half-maximal inhibition (IC50) is above 50000 nM in assay [1] (setting [8]); above 50000 nM in assay [1] (setting [6]); 27.8 ± 2.5 nM in assay [2] (IC50 (nM) Casp-3, Table 7); 27.8 ± 2.5 nM in assay [2] (IC50 (nM) Caspase 3, Table 2); 27.8 nM in assay [2] (IC50 for caspase-3); 918 ± 151 nM in assay [3]. The IC50 was 51.7 ± 6.2 nM in assay [4] (IC50 (nM) Casp-7, Table 7); 51.7 ± 6.2 nM in assay [4] (IC50 (nM) Caspase 7, Table 2); 51.7 nM in assay [4] (IC50 for caspase-7); 6220 nM in assay [5].

Consider `N#CC(C#N)=C1C(=O)N(Cc2ccc(O)cc2)c2ccc(S(=O)(=O)N3CCC[C@H]3COc3ccccc3)cc21` [Compound 27c], for which the IC50 was above 50000 nM in assay [1] (setting [8]); above 50000 nM in assay [1] (setting [6]); 31.8 ± 6.2 nM in assay [2] (setting [9]); 31.8 ± 6.2 nM in assay [2] (Table 7, read-out: IC50 (nM) Casp-3); 31.8 nM in assay [2] (read-out: IC50 for caspase-3); 744 ± 48 nM in assay [3] (setting [10]). Besides, the IC50 turned out to be 744 ± 48 nM in assay [3] (Table 7, read-out: IC50 (nM) Casp-6); 126 ± 19 nM in assay [4] (setting [11]); 126 ± 19.3 nM in assay [4] (Table 7, read-out: IC50 (nM) Casp-7); 126 nM in assay [4] (read-out: IC50 for caspase-7); 2300 nM in assay [5] (setting [12]); 2300 ± 250 nM in assay [5] (setting [7]).

Take `O=C1C(=O)N(Cc2ccc(OCCF)cc2)c2ccc(S(=O)(=O)N3CCC[C@H]3COc3cccnc3)cc21` [WC-II-100]: the half-inhibitory concentration (IC50) in assay [1] (setting [13]) was above 50000 nM; in assay [2] (Table 1, read-out: IC50 (nM) Caspase 3) it was 3.1 ± 0.4 nM; in assay [3] (Table 1, read-out: IC50 (nM) Caspase 6), 6900 nM; in assay [4] (Table 1, read-out: IC50 (nM) Caspase 7) it was 11.3 ± 0.6 nM; in assay [5] (setting [14]) it was above 20000 nM.

As for `O=C1C(=O)N(Cc2ccc(Br)cc2)c2ccc(S(=O)(=O)N3CCCC3COc3ccccc3)cc21` (centres unmarked) [Compound 25d, 1-(4-Bromo-benzyl)-5-(2-Phenoxymethyl-pyrrolidine-1-sulfonyl)-1H-indole-2,3-dione], the IC50 in assay [1] (setting [13]) is above 50000 nM; in assay [1] (setting [6]), above 50000 nM; in assay [2] (IC50 (nM) Casp-3, Table 7) it was 9.85 ± 0.9 nM; in assay [2] (IC50 (nM) Caspase 3, Table 1) it was 9.9 ± 0.9 nM; in assay [3], 8900 nM; in assay [4] (IC50 (nM) Casp-7, Table 7), 34.8 ± 1.4 nM. Moreover, the IC50 in assay [4] (IC50 (nM) Caspase 7, Table 1) was 34.8 ± 1.4 nM; in assay [5] (setting [14]), above 15000 nM; in assay [5] (setting [7]), above 15000 nM.

`N#CC(C#N)=C1C(=O)N(Cc2ccc(OCCF)cc2)c2ccc(S(=O)(=O)N3CC[C@H]3COc3cccnc3)cc21` [WC-II-104]: the IC50 in assay [1] (setting [8]) was above 50000 nM; in assay [2] (setting [9]), 7.1 ± 0.6 nM; in assay [3] (setting [10]), 580 ± 55 nM; in assay [4] (setting [11]) it was 22.7 ± 3.1 nM; in assay [5] (setting [12]), 2900 nM.

With `O=C1Nc2ccc(S(=O)(=O)N3CCCC3COc3ccncc3)cc2C1=O` (centres unmarked) [Compound 23, 5-(2-(Pyridin-4-yl-oxymethyl)-pyrrolidine-1-sulfonyl)-1H-indole-2,3-dione], the IC50 is above 50000 nM in assay [1] (setting [15]); 20.4 ± 1.7 nM in assay [2] (setting [16]); above 5000 nM in assay [3] (setting [17]); 142 ± 22.6 nM in assay [4] (setting [18]); above 5000 nM in assay [5] (setting [19]).

With `O=C1C(=O)N(Cc2ccccc2)c2ccc(S(=O)(=O)N3CCCC3COc3cccnc3)cc21` (centres unmarked) [Compound 21b, 1-Benzyl-5-(2-(pyridin-3-yl-oxymethyl)-pyrrolidine-1-sulfonyl)-1H-indole-2,3-dione], the IC50 in assay [1] (setting [15]) is above 50000 nM; in assay [2] (setting [16]), 5.2 ± 1.6 nM; in assay [3] (setting [17]), above 5000 nM; in assay [4] (setting [18]), 14.1 ± 3.4 nM; in assay [5] (setting [19]), above 10000 nM.
